In patent US12329158B2, “Large-scale methods of uniformly coating packaging surfaces with a volatile antimicrobial to preserve food freshness” (AGROFRESH INC., priority 2013, dated 2025):
≈ marks a conversion by molar mass, not a printed value. Read-outs that look alike come from different tables or passages of the source.

What was measured:
Format in all cases: cell-based
[1] = system: Botrytis cinerea; assay: Volatile MIC assay (Example 10); details: 72 h, read-out: MIC (mg/L) BOTRCI
Method: (§1) 12-Well (6.5 mL volume per well) microtiter plates are used for the in vitro inhibition assay for volatile antimicrobial compounds. A 3-mL volume of full-strength Potato Dextrose Agar (PDA) is added to each well. After cooling, 1 μL of 1×10^5 per mL Botrytis cinerea and Penicillium expansum spore suspension is spot-pipetted to the center of the agar. Plates are inoculated immediately prior to volatile fungicide treatment. A Whatman #1 filter disk (Cat. No. 1001-0155) is placed, in duplicate, on the underside of a polyethylene PCR plate sealing film. […] The headspace around the inoculum is then sealed inside the well by the film with the adhering disk containing the fungicide by inverting the plates over the treated disks and sealing to prevent any of the chemical from flaking from the disk and falling onto the inoculated agar. After 3 days of storage at 23° C., the cultures are evaluated for percent growth relative to control based on measurement of fungal colony diameter.

[2] = system: Penicillium expansum; assay: Volatile MIC assay (Example 10); details: 72 h, read-out: MIC (mg/L) PENIEX
Method: as §1

[3] = system: Alternaria alternata; assay: Volatile MIC assay (Example 9); details: 72 h, headspace concentration, 3 days at 23 C, read-out: MIC (mg/L) ALTEAL
Method: (§2) A 3-mL volume of full-strength Potato Dextrose Agar (PDA) is added to each well. […] Plates are inoculated immediately prior to volatile fungicide treatment. A Whatman #1 filter disk (Cat. No. 1001-0155) is placed, in duplicate, on the underside of a polyethylene PCR plate sealing film. […] The acetone is permitted to evaporate for 5 minutes. The headspace around the inoculum is then sealed inside the well by the film with the adhering disk containing the fungicide by inverting the plates over the treated disks and sealing to prevent any of the chemical from flaking from the disk and falling onto the inoculated agar.

[4] = system: Botrytis cinerea; assay: Volatile MIC assay (Example 9); details: 72 h, headspace concentration, 3 days at 23 C, read-out: MIC (mg/L) BOTRCI
Method: as §2

[5] = system: Monilinia fructicola; assay: Volatile MIC assay (Example 9); details: 72 h, headspace concentration, 3 days at 23 C, read-out: MIC (mg/L) MONIFC
Method: as §2

[6] = system: Penicillium expansum; assay: Volatile MIC assay (Example 9); details: 72 h, headspace concentration, 3 days at 23 C, read-out: MIC (mg/L) PENIEX
Method: as §2

[7] = system: B. cinerea; assay: In vitro contact assay, amended agar (Example 24); details: Botrytis cinerea, 72 h, read-out: Contact MIC (mg/L) B. cinerea
Method: (§3) Contact assay: 6-well (16.5 mL volume per well) microtiter plates are used for an in vitro inhibition assay. […] A 7.5-mL volume of the amended media is added to each well of the microtiter plate. […] The plates are sealed with a clear film and incubated for 3 days at 23° C. After incubation, plates are evaluate for percent growth relative to acetone only control.

[8] = system: P. expansum; assay: In vitro contact assay, amended agar (Example 24); details: Penicillium expansum, 72 h, read-out: Contact MIC (mg/L) P. expansum
Method: as §3

[9] = system: Botrytis cinerea; assay: In vitro volatile assay (Example 24); details: 72 h, headspace, 100% control, 3 days at 23 C, read-out: Volatile MIC (mg/L) B. cinerea
Method: (§4) Volatile assay: 12-well (6.5 mL volume per well) microtiter plates are used. A 3-mL volume of half strength PDA is added to each well. […] A Whatman #1 filter disk (Cat. No. 1001-0155) is placed, in duplicate, on the underside of a polyethylene PCR plate sealing film. […] The acetone is permitted to evaporate for 5 minutes. The headspace around the inoculum is then sealed inside the well by the film with the adhering disk containing the fungicide. Plates are inverted, placed over the treated disks, and sealed to prevent any of the chemical from flaking from the disk and falling onto the inoculated agar. […] Contact assay: 6-well (16.5 mL volume per well) microtiter plates are used for an in vitro inhibition assay. […] A 7.5-mL volume of the amended media is added to each well of the microtiter plate. […] The plates are sealed with a clear film and incubated for 3 days at 23° C. After incubation, plates are evaluate for percent growth relative to acetone only control.

[10] = system: Penicillium expansum; assay: In vitro volatile assay (Example 24); details: 72 h, headspace, 100% control, 3 days at 23 C, read-out: Volatile MIC (mg/L) P. expansum
Method: as §4

[11] = system: Botrytis cinerea; assay: In vitro inhibition assay for volatile fungicide, 12-well plates (Example 7); details: volatile; 14 days at 4 C
Method: For testing activity against fungi pathogens, an in vitro inhibition assay for volatile antimicrobial compounds is developed using 12-Well (7 milliliter (mL) volume per well) microtiter plates. A 3-mL volume of full-strength Potato Dextrose Agar (PDA) is added to each well. After cooling, 1 microliter (μL) of 1×10^6 per mL Botrytis cinerea spore suspension is spot pipetted to the center of the agar. For the first experiment, inoculated plates are allowed to germinate for 5 days at 4° C. For the second experiment, plates are inoculated immediately prior to volatile fungicide treatment. Small Whatman #1 filter disks (Cat. No. 1001-0155) are placed, in duplicate, on the underside of a polyethylene PCR plate sealing film.
The acetone is permitted to evaporate for 5 minutes. The headspace around the Botrytis cinerea inoculum is then sealed inside the well by the film with the adhering disk containing the fungicide. Plates are inverted, placed over the treated disks and sealed to prevent any of the chemical from flaking from the disk and falling onto the inoculated agar. After 14 days of storage at 4° C., cultures are evaluated for percent growth relative to control. […]

[12] = volatile treatment, 3 days at 23 C
[13] = amended agar, 100% control, 3 days at 23 C

| Structure (SMILES) | MIC [1, 12] [mg/L] | MIC [2, 12] [mg/L] | other results |
| --- | --- | --- | --- |
| NCCOB1OCc2ccccc21 [Compound 21] | 1.1 (≈ 6.21 µM) | 35.7 (≈ 202 µM) |  |
| CN(C)CCOB1OCc2ccccc21 [Compound 22] | 4.5 (≈ 21.9 µM) | 35.7 (≈ 174 µM) |  |
| CCCCOB1OCc2cc(F)ccc21 [Compound 30] |  |  | MIC [3]: 2.2 mg/L (≈ 10.6 µM); MIC [4]: 2.2 mg/L (≈ 10.6 µM); MIC [5]: 2.2 mg/L (≈ 10.6 µM); MIC [6]: 8.9 mg/L (≈ 42.8 µM) |
| NCCOB1OCc2cc(F)ccc21 [Compound 34] |  |  | MIC [3]: 2.2 mg/L (≈ 11.3 µM); MIC [4]: < 0.6 mg/L; MIC [6]: 2.2 mg/L (≈ 11.3 µM); MIC [7, 13]: 2 mg/L (≈ 10.3 µM); MIC [8, 13]: 0.4 mg/L (≈ 2.05 µM); MIC [9]: 0.6 mg/L (≈ 3.08 µM); MIC [10]: 2.2 mg/L (≈ 11.3 µM) |
| COCCOB1OCc2cc(F)ccc21 [Compound 38] | 0.6 (≈ 2.86 µM) | 8.9 (≈ 42.4 µM) |  |
| COCCCOB1OCc2cc(F)ccc21 [Compound 39] | 0.6 (≈ 2.68 µM) | 8.9 (≈ 39.7 µM) |  |
| OCCOCCOCCOB1OCc2cc(F)ccc21 [Compound 55] | 4.5 (≈ 15.8 µM) | > 35.7 |  |
| OCCOCCOB1OCc2cc(F)ccc21 [Compound 62] | 2.2 (≈ 9.17 µM) | 8.9 (≈ 37.1 µM) |  |
| CN(C)CCCOB1OCc2cc(F)ccc21 [Compound 63] | 1.1 (≈ 4.64 µM) | 17.9 (≈ 75.5 µM) |  |
| NCCCOB1OCc2cc(F)ccc21 [Compound 64] | 1.1 (≈ 5.26 µM) | 8.9 (≈ 42.6 µM) |  |
| CN(CCO)CCOB1OCc2cc(F)ccc21 [Compound 72] | 35.7 (≈ 141 µM) | > 35.7 |  |
| OCCNCCOB1OCc2cc(F)ccc21 [Compound 73] | 35.7 (≈ 149 µM) | > 35.7 |  |
| CN(C)CCOB1OCc2cc(F)ccc21 [Compound 74] | 2.2 (≈ 9.86 µM) | 35.7 (≈ 160 µM) |  |
| OCCCCCCOB1OCc2cc(F)ccc21 [Compound 86] | 0.6 (≈ 2.38 µM) | 8.9 (≈ 35.3 µM) |  |
| CNCCOB1OCc2cc(F)ccc21 [Compound 87] | 0.6 (≈ 2.87 µM) | 8.9 (≈ 42.6 µM) |  |
| OB1OC(N2CCOCC2)c2ccccc21 (stereo not shown) [Compound 114] | 17.9 (≈ 81.7 µM) | > 35.7 |  |
| CC(C)(N)COB1OCc2cc(F)ccc21 [Compound 115] | 0.6 (≈ 2.69 µM) | 8.9 (≈ 39.9 µM) |  |
| Nc1ccccc1OB1OCc2cc(F)ccc21 [Compound 116] | 1.1 (≈ 4.53 µM) | 8.9 (≈ 36.6 µM) |  |

| Structure (SMILES) | MIC [1, 12] [mg/L] | MIC [2, 12] [mg/L] | other results |
| --- | --- | --- | --- |
| O[B@@-]1([NH2+]Cc2ccccc2)OCc2ccccc21 [Compound 121] | 4.5 (≈ 18.7 µM) | 17.9 (≈ 74.2 µM) | MIC [7, 13]: 10 mg/L (≈ 41.5 µM); MIC [8, 13]: 10 mg/L (≈ 41.5 µM); MIC [9]: 4.5 mg/L (≈ 18.7 µM); MIC [10]: 17.9 mg/L (≈ 74.2 µM) |
| C[Si](C)(C)OB1OCc2ccccc21 [Compound 122] |  |  | MIC [1]: 2.2 mg/L (≈ 10.7 µM) |
| OB1OCc2cc(Cl)ccc21 [Compound 124] | 4.5 (≈ 26.7 µM) | 8.9 (≈ 52.9 µM) | MIC [7, 13]: 2 mg/L (≈ 11.9 µM); MIC [8, 13]: 2 mg/L (≈ 11.9 µM); MIC [9]: 4.5 mg/L (≈ 26.7 µM); MIC [10]: 8.9 mg/L (≈ 52.9 µM) |
| Fc1ccc2c(c1)COB2c1ccccc1 [Compound 127] | 2.2 (≈ 10.4 µM) | 4.5 (≈ 21.2 µM) |  |
| C=CB1OCc2cc(F)ccc21 [Compound 129] | 4.5 (≈ 27.8 µM) | 8.9 (≈ 54.9 µM) |  |
| N#C[B-]1(O)OCc2cc(F)ccc21.[K+] (stereo not shown) [Compound 130] |  |  | MIC [1]: 1.1 mg/L; MIC [2]: 4.5 mg/L; MIC [7]: 2 mg/L; MIC [8]: 0.4 mg/L |
| N#C[B-]1(O)OCc2cc(F)ccc21.[Na+] (stereo not shown) [Compound 132] |  |  | MIC [7, 13]: 2 mg/L; MIC [8, 13]: 2 mg/L; MIC [9]: 1.1 mg/L; MIC [10]: 4.5 mg/L |
| Fc1ccc(B2OCc3cc(F)ccc32)cc1 [Compound 133] | 8.9 (≈ 38.7 µM) | 35.7 (≈ 155 µM) |  |
| Fc1cccc(B2OCc3cc(F)ccc32)c1 [Compound 134] | 17.9 (≈ 77.8 µM) | > 35.7 |  |
| COc1ccc(B2OCc3cc(F)ccc32)cc1 [Compound 135] | 17.9 (≈ 73.9 µM) | > 35.7 | MIC [7, 13]: 2 mg/L (≈ 8.26 µM); MIC [8, 13]: 2 mg/L (≈ 8.26 µM); MIC [9]: 17.9 mg/L (≈ 73.9 µM); MIC [10]: > 35.7 mg/L |
| COc1cccc(B2OCc3cc(F)ccc32)c1 [Compound 136] | 8.9 (≈ 36.8 µM) | > 35.7 |  |
| C=C(C)B1OCc2cc(F)ccc21 [Compound 137] | 0.3 (≈ 1.7 µM) | 1.1 (≈ 6.25 µM) |  |
| OB1OCc2ccc(F)cc21 [Compound 200] |  |  | MIC [3]: 7.3 mg/L (≈ 48 µM); MIC [4]: 10.6 mg/L (≈ 69.8 µM); MIC [5]: 6.3 mg/L (≈ 41.5 µM); MIC [6]: 68.3 mg/L (≈ 450 µM) |
| OB1OCc2c(F)cccc21 [Compound 202] | 35.7 (≈ 235 µM) | 143 (≈ 941 µM) |  |
| OB1OCc2cccc(F)c21 [Compound 203] | 8.9 (≈ 58.6 µM) | 143 (≈ 941 µM) |  |
| OB1OCc2cc(F)c(F)cc21 [Compound 204] | 8.9 (≈ 52.4 µM) | > 35.7 |  |
| OB1OCc2ccccc21 [Compound B2, 2-(hydroxymethyl)phenylboronic acid cyclic monoester] |  |  | Rate giving 100% in vitro inhibition of Botrytis cinerea [11]: 0.0078 mg/disk |
| Fc1ccc2c(c1)COB2OCCOB1OCc2cc(F)ccc21 [Compound B] |  |  | MIC [7, 13]: 0.4 mg/L (≈ 1.21 µM); MIC [8, 13]: 2 mg/L (≈ 6.06 µM); MIC [9]: 0.6 mg/L (≈ 1.82 µM); MIC [10]: 8.9 mg/L (≈ 27 µM) |
